Measurements reported in the supplement of paper PMC11451515.

What was measured:
Settings in all cases: 48 h
[1] = system: NOMO1; experiment: cell viability relative to DMSO control; higher = less cytotoxic
Summary of the method: (§1)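 Cells were incubated for 48 h at 37°C before CellTiter-Glo One luminescence was read. The cells were NOMO1 or SEM (500 cells/well) or P12-Ichikawa (1000 cells/well) leukemia cells, adapted for at least four passages in each medium and seeded in 1536-well plates (5 μl). Dosing used library compounds in DMSO applied by pin over 11 threefold points, 47 μM to 0.79 nM. Viability is the per-plate percentage of DMSO wells, with cell-free wells as background.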

[2] = system: P12-Ichikawa; experiment: as above
Summary of the method: as §1

[3] = system: SEM cells; experiment: as above
Summary of the method: as §1

[4] = system: NOMO1; experiment: AUC of viability dose-response curve (% viability x log10 dose units); higher = less sensitive
Summary of the method: (§2)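 Library compounds in DMSO were applied for 48 h at 37°C at 11 threefold doses (47 μM to 0.79 nM) to medium-adapted leukemia cells in 1536-well plates holding 500 or 1000 cells/well. Luminescence from CellTiter-Glo One was normalised plate by plate against DMSO and cell-free wells. Area under the curve came from trapezoidal integration of a log-logistic fit, after scaling curves that rose above full viability and discarding those that failed quality control. The fit had four parameters and used log10 doses.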

[5] = system: P12-Ichikawa; experiment: as above
Summary of the method: as §2

[6] = system: SEM cells; experiment: as above
Summary of the method: as §2

CN(C)[C@@H](CCOc1cccc2ccccc12)c1ccccc1
cell viability [%]
Settings	[1]	[2]	[3]
HPLM + 10% dialyzed FBS, 0.000781 µM	110	112	139
HPLM + 10% dialyzed FBS, 0.00234 µM	117	111	115
HPLM + 10% dialyzed FBS, 0.00702 µM	129	113	125
HPLM + 10% dialyzed FBS, 0.0211 µM	103	115	110
HPLM + 10% dialyzed FBS, 0.0632 µM	124	115	119
HPLM + 10% dialyzed FBS, 0.19 µM	114	112	120
HPLM + 10% dialyzed FBS, 0.569 µM	110	109	100
HPLM + 10% dialyzed FBS, 1.71 µM	97.5	104	108
HPLM + 10% dialyzed FBS, 5.12 µM	86.4	101	111
HPLM + 10% dialyzed FBS, 15.4 µM	106	104	107
HPLM + 10% dialyzed FBS, 46.1 µM	70.6	88.5	65
RPMI 5 mM glucose + 10% FBS, 0.000781 µM	105	116	120
RPMI 5 mM glucose + 10% FBS, 0.00234 µM	112	118	122
RPMI 5 mM glucose + 10% FBS, 0.00702 µM	106	131	122
RPMI 5 mM glucose + 10% FBS, 0.0211 µM	109	122	127
RPMI 5 mM glucose + 10% FBS, 0.0632 µM	119	113	132
RPMI 5 mM glucose + 10% FBS, 0.19 µM	106	116	131
RPMI 5 mM glucose + 10% FBS, 0.569 µM	110	115	103
RPMI 5 mM glucose + 10% FBS, 1.71 µM	113	101	118
RPMI 5 mM glucose + 10% FBS, 5.12 µM	99.8	92.2	95.7
RPMI 5 mM glucose + 10% FBS, 15.4 µM	98.4	110	114
RPMI 5 mM glucose + 10% FBS, 46.1 µM	68.9	73.1	71.2
RPMI 5 mM glucose + 10% dialyzed FBS, 0.000781 µM	113	111	101
RPMI 5 mM glucose + 10% dialyzed FBS, 0.00234 µM	114	102	121
RPMI 5 mM glucose + 10% dialyzed FBS, 0.00702 µM	114	114	117
RPMI 5 mM glucose + 10% dialyzed FBS, 0.0211 µM	111	110	127
RPMI 5 mM glucose + 10% dialyzed FBS, 0.0632 µM	106	115	131
RPMI 5 mM glucose + 10% dialyzed FBS, 0.19 µM	99	105	129
RPMI 5 mM glucose + 10% dialyzed FBS, 0.569 µM	119	111	91.5
RPMI 5 mM glucose + 10% dialyzed FBS, 1.71 µM	113	108	132
RPMI 5 mM glucose + 10% dialyzed FBS, 5.12 µM	114	98.2	101
RPMI 5 mM glucose + 10% dialyzed FBS, 15.4 µM	92.7	106	136
RPMI 5 mM glucose + 10% dialyzed FBS, 46.1 µM	52.1	67.1	81

AUC of viability dose-response curve
Settings	[4]	[5]	[6]
HPLM + 10% dialyzed FBS	433	455	400
RPMI 5 mM glucose + 10% FBS	461	433	444
RPMI 5 mM glucose + 10% dialyzed FBS	456	467	469

CS[C@H]1SC[C@@H]2C(=O)N(C)[C@H](C(C)C)C(=O)OC[C@H](NC(=O)c3cnc4ccccc4n3)C(=O)N[C@H](C)C(=O)N(C)[C@H]1C(=O)N(C)[C@H](C(C)C)C(=O)OC[C@H](NC(=O)c1cnc3ccccc3n1)C(=O)N[C@H](C)C(=O)N2C
cell viability [%]
Settings	[1]	[2]	[3]
HPLM + 10% dialyzed FBS, 0.000781 µM	90.5	93.5	81.1
HPLM + 10% dialyzed FBS, 0.00234 µM	92.4	97.9	59
HPLM + 10% dialyzed FBS, 0.00702 µM	81	97.7	37.5
HPLM + 10% dialyzed FBS, 0.0211 µM	34	59	14.2
HPLM + 10% dialyzed FBS, 0.0632 µM	7.25	6.91	7.27
HPLM + 10% dialyzed FBS, 0.19 µM	7.68	9.39	7.08
HPLM + 10% dialyzed FBS, 0.569 µM	7.01	11.9	7.54
HPLM + 10% dialyzed FBS, 1.71 µM	6.88	11.9	7.91
HPLM + 10% dialyzed FBS, 5.12 µM	6.12	9.92	7.3
HPLM + 10% dialyzed FBS, 15.4 µM	5.83	9.92	6
HPLM + 10% dialyzed FBS, 46.1 µM	3.83	13.2	5.18
RPMI 5 mM glucose + 10% FBS, 0.000781 µM	86.1	88	76.5
RPMI 5 mM glucose + 10% FBS, 0.00234 µM	83	98.9	47.9
RPMI 5 mM glucose + 10% FBS, 0.00702 µM	92.4	74.9	25.6
RPMI 5 mM glucose + 10% FBS, 0.0211 µM	44.5	44.9	9.07
RPMI 5 mM glucose + 10% FBS, 0.0632 µM	5.63	6.52	6.95
RPMI 5 mM glucose + 10% FBS, 0.19 µM	5.77	7.51	7.44
RPMI 5 mM glucose + 10% FBS, 0.569 µM	5.98	8.83	7.22
RPMI 5 mM glucose + 10% FBS, 1.71 µM	5.95	9.76	7.34
RPMI 5 mM glucose + 10% FBS, 5.12 µM	5.48	7.33	7.64
RPMI 5 mM glucose + 10% FBS, 15.4 µM	4.23	7.34	6.82
RPMI 5 mM glucose + 10% FBS, 46.1 µM	4.39	6.52	5
RPMI 5 mM glucose + 10% dialyzed FBS, 0.000781 µM	92.6	88.5	66.4
RPMI 5 mM glucose + 10% dialyzed FBS, 0.00234 µM	81.1	91.2	44.7
RPMI 5 mM glucose + 10% dialyzed FBS, 0.00702 µM	83.2	68.6	34.2
RPMI 5 mM glucose + 10% dialyzed FBS, 0.0211 µM	49.8	29.6	11.8
RPMI 5 mM glucose + 10% dialyzed FBS, 0.0632 µM	5.73	6.86	7.65
RPMI 5 mM glucose + 10% dialyzed FBS, 0.19 µM	5.24	8.69	8.72
RPMI 5 mM glucose + 10% dialyzed FBS, 0.569 µM	5.79	9.15	8.82
RPMI 5 mM glucose + 10% dialyzed FBS, 1.71 µM	5.79	9.6	8.65
RPMI 5 mM glucose + 10% dialyzed FBS, 5.12 µM	5.29	8.79	8.6
RPMI 5 mM glucose + 10% dialyzed FBS, 15.4 µM	4	11.4	7.68
RPMI 5 mM glucose + 10% dialyzed FBS, 46.1 µM	3.33	11.8	5.52

AUC of viability dose-response curve
Settings	HPLM + 10% dialyzed FBS	RPMI 5 mM glucose + 10% FBS	RPMI 5 mM glucose + 10% dialyzed FBS
[4]	140	142	141
[5]	176	148	140

O[C@@H]1[C@@H](O)[C@H](O[C@@H]([C@H]1O)C(O)=O)OC2=C(O)C(=C3C(=O)\C=C(/OC3=C2)C4=CC=CC=C4)O
AUC of viability dose-response curve
Settings	[4]	[5]	[6]
HPLM + 10% dialyzed FBS	445	447	446
RPMI 5 mM glucose + 10% FBS	427	448	409
RPMI 5 mM glucose + 10% dialyzed FBS	460	460	425

CCOC(=O)[C@H](CCc1ccccc1)N[C@H]1CS[C@H](c2cccs2)CN(CC(=O)O)C1=O.Cl
AUC of viability dose-response curve
Settings	[4]	[5]	[6]
HPLM + 10% dialyzed FBS	384	400	461
RPMI 5 mM glucose + 10% FBS	408	401	437
RPMI 5 mM glucose + 10% dialyzed FBS	395	421	468

Cn1ccc2cc3c(cc21)CCN3C(=O)Nc1cccnc1
[3], HPLM + 10% dialyzed FBS
Settings	cell viability [%]
0.000781 µM	100
0.00234 µM	113
0.00702 µM	132
0.0211 µM	116
0.0632 µM	123
0.19 µM	158
0.569 µM	140
1.71 µM	127
5.12 µM	125
15.4 µM	137
46.1 µM	59.8

AUC of viability dose-response curve
Settings	[4]	[5]	[6]
HPLM + 10% dialyzed FBS	460	464	464
RPMI 5 mM glucose + 10% FBS	451	462	461
RPMI 5 mM glucose + 10% dialyzed FBS	466	463	461
